Reference: PMC12515225, “Targeting neuroblastoma with hydroxamic acid based HDAC1 and HDAC2 inhibitors: Insights from in vitro and in vivo studies” (Investigational New Drugs, 2025)

Key:
[1] = target: HDAC2 (Homo sapiens, UniProt Q92769); assay: fluorogenic HDAC activity assay with HDAC2 protein (BPS […]), Boc-Lys(Ac)-AMC substrate; type: biochemical
[2] = target: HDAC1 (Homo sapiens, UniProt Q13547); assay: fluorogenic HDAC activity assay with HDAC1 protein (BPS […]), Boc-Lys(Ac)-AMC substrate; type: biochemical
Chain of HDAC1 (Q13547 whole entry): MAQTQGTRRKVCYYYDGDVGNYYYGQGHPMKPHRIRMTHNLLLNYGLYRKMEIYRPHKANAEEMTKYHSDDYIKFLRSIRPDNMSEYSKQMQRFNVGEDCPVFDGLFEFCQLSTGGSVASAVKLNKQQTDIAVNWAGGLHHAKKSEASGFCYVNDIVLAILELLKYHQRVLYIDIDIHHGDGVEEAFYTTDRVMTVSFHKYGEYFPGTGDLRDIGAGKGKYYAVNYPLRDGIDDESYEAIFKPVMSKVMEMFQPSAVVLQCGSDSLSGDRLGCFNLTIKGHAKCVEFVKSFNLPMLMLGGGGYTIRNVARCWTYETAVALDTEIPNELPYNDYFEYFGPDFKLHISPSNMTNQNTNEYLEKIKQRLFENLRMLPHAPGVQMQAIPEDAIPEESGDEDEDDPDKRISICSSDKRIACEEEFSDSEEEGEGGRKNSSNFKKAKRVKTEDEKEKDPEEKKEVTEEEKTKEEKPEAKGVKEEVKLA

Chain of HDAC2 (Q92769 whole entry): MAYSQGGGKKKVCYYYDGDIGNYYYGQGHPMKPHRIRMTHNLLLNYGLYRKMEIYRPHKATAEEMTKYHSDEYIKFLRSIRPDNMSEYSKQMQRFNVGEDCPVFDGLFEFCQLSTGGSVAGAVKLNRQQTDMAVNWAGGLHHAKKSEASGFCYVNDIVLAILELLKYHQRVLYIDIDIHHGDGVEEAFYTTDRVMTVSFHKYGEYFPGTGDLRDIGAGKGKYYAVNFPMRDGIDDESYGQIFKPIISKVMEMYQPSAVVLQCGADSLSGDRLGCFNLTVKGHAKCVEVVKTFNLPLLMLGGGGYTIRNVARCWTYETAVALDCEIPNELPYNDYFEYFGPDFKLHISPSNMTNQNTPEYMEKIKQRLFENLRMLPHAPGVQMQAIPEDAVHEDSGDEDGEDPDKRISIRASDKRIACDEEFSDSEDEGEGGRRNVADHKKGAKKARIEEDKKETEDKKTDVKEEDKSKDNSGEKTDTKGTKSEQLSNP

| IC50 [1] [nM] | IC50 [2] [nM] | SMILES |
| --- | --- | --- |
| 890 |  | O=C(NO)c1cccc(-c2ccccn2)n1 [3A, N-hydroxy[2,2'-bipyridine]-6-carboxamide] |
| 1940 | 440 | O=C(CCCCCCC(=O)Nc1cccc(-c2ccccn2)n1)NO [3B, N^1-([2,2'-bipyridin]-6-yl)-N^8-hydroxyoctanediamide] |
